The values below come from US5945404A, “21-Substituted steroid compound” (priority 1993, dated 1999).

Holding throughout (type): in vivo, male Sprague-Dawley rats
Data set [1] in a line: Effects of 7-day Ointment Rubbing on Organ Weights. The conditions noted are these: Table 7, 7-day rubbing, 100 mg ointment once daily; for Leukocyte count: normal animal 0.0. How it is done: (§1) Ointment to be tested was prepared usign white soft paraffin as the base and containing dexamethasone at 0.1% concentration.
Groups of 5 male Sprague-Dawley rats each weighing 150-170 g were used. Under ether anesthesia, the dorsum of animals were closely clipped, and test drug (100 mg) was carefully rubbed in the clipped dorsal area for 30 seconds. Rats were slipped on plastic cang to prevent them from licking the drug-applied area. After the drug rubbing once daily for 7 days, on the 8th day rats were anesthetized with ether. Blood samples were collected, and thymus, spleen, and adrenal were excised and measured their wet weights. Furthermore, leukocyte number was counted with the blood samples collected. Results were expressed as the per cent of change of body weight on the 8th day as compared with that on the 1st day of rubbing. Similarly, the per cent of change in weights of thymus, spleen and adrenal on the 8th day as compared with that of the control animlas were shown.

The next data set concerns granuloma. Briefly: Inhibitory Effects on Granuloma Growth (Paper Disk Method). The conditions noted are these: Rattus norvegicus, topical, 168 h, ointment 0.1%, 50 mg once a day, 7 days. How it is done:
as §1
Groups of 5 male Sprague-Dawley rats each weighing 150-170 g were used. Under ether anesthesia, the dorsum of animals was closely clipped, and medianly incised. After each one pre-weighed paper disk (8-mm diameter, 1-mm thick, weighing about 30 mg; Toyo-Roshi filter paper) was inserted subcutaneously into both sides of the dorsal incision, the incision was sutured. In order to prevent bacterial infection, penicillin G potassium salt (2,000 units) per rat was intramascularly injected after the surgery. Base or ointment to be tested (50 mg each) was rubbed carefully into the skin over the paper disk inserted site, for 30 seconds once a day for the duration of 7 days. Rats were slipped plastic cangs on to prevent them from licking the drug applied sites. On the 8th day of the test, rats were sacrificed under ether anesthesia, and granulomas were carefully excised. Granulomas were dried at 40° C. for 24 h, and their dry weights were recorded.
Inhibitory effects of dexamethasone derivatives on the weight increase of granuloma of experimental animals as compared with those of control animals are shown as per cent of inhibition ov er the control in Table 1. Figures wihth asterisks in the table indicate signfiicant difference. The same will be applied to the following other tables.

The test system of data set [2] is croton oil-induced granuloma. Briefly: Croton Oil-induced Granuloma (granuloma pouch). Particulars: Rattus norvegicus, 168 h, 7 days; for inhibition in vivo at 0.01 mg: 0.01 mg/rat; for inhibition in vivo at 0.1 mg: 0.1 mg/rat; for inhibition in vivo at 1 mg: 1.0 mg/rat. How it is done:
Groups of 5 male Sprague-Dawley rats each weighing 160-180 g were used. Under ether anesthesia, the dorsum of animals was closely clipped, and air sac was formed by injecting air (20 ml) subcutaneously. Next day cotton seed oil containing 1% croton oil was injected into the air sac. Drugs to be tested were suspended in the cotton seed oil containing 1% croton oil, and administered. After 7 days, the blood was taken from the animal under ether anesthesia. Then, the granuloma pouch fluid (exudate) was collected, and the fluid volume was measured. The pouch wall formed around granuloma and thymus were also excised and weighed.

Setting [3] is: read-out: Weight of granuloma, per cent of change of the controls, rat, paper disk.
Setting [4] is: read-out: Effects on granuloma weight, per cent of inhibition over the control.
[5] abbreviates: read-out: Effects on pouch fluid (exudate) volume, per cent of inhibition over the control.
[6] abbreviates: rat, paper disk, read-out: Weight of granuloma, per cent of change of the controls.

Read-outs that look alike come from different tables or passages of the source.

Consider `C[C@@H]1C[C@H]2[C@@H]3CCC4=CC(=O)C=C[C@]4(C)[C@@]3(F)[C@@H](O)C[C@]2(C)[C@@]1(O)C(=O)CO[C@@H]1O[C@H](CO)[C@H](O)[C@H](O)[C@H]1O` [Compound 15β, galactosyldexamethasone], for which, in data set [1], the “Adrenal weight, per cent of change vs control animals” value (shortened to “Adrenal weight, per cent of change”) is -47.1 ± 1.9 per cent; the “Body weight, per cent of change on the 8th day vs 1st day” value (from here on “Body weight, per cent of change”) worked out at 4.6 ± 0.9 per cent; the “Spleen weight, per cent of change vs control animals” value (“Spleen weight, per cent of change” for short) is given as -43.2 ± 2.1 per cent; the “Thymus weight, per cent of change vs control animals” value (“Thymus weight, per cent of change” below) is listed as -86.0 ± 1.4 per cent. In data set [1], this molecule showed a Leukocyte count of -37.0 ± 6.9. Moreover, the change in vivo at 0.1 %, 50 mg in the data set on granuloma (setting [3]) was -41 ± 2.6%.

As to `C[C@@H]1C[C@H]2[C@@H]3CCC4=CC(=O)C=C[C@]4(C)[C@@]3(F)[C@@H](O)C[C@]2(C)[C@@]1(O)C(=O)CO[C@H]1O[C@H](CO)[C@@H](O)[C@H](O)[C@@H]1O` [Compound 25α, mannosyldexamethasone], in data set [1], the “Adrenal weight, per cent of change” value was -24.4 ± 3.4 per cent; the “Body weight, per cent of change” value came to 16.1 ± 1.7 per cent; the “Spleen weight, per cent of change” value was -18.2 ± 2.2 per cent; the “Thymus weight, per cent of change” value was -32.6 ± 7.4 per cent. The Leukocyte count in data set [1] was -0.7 ± 9.0. The change in vivo at 0.1 %, 50 mg in the data set on granuloma (setting [3]) was -18 ± 4.8%.

For `Cc1ccc(C(=O)OC[C@H]2O[C@@H](OCC(=O)[C@@]3(O)CC[C@H]4[C@@H]5C[C@H](F)C6=CC(=O)C=C[C@]6(C)[C@@]5(F)[C@@H](O)C[C@@]43C)[C@H](OC(=O)c3ccc(C)cc3)[C@@H](OC(=O)c3ccc(C)cc3)[C@@H]2OC(=O)c2ccc(C)cc2)cc1` [Compound 105β, glucosyldiflupredonate (p-toluoyl derivative)], in data set [2] (setting [4]), the inhibition in vivo at 0.01 mg is -5.9 ± 10.9%, the inhibition in vivo at 0.1 mg worked out at 22.1 ± 3.7% and the inhibition in vivo at 1 mg was 53 ± 6.2%. In addition, in data set [2] (setting [5]), the inhibition in vivo at 0.01 mg is -8.1 ± 9.4%, the inhibition in vivo at 0.1 mg stood at 24.8 ± 8.8% and the inhibition in vivo at 1 mg amounted to 76.4 ± 4.3%. Further, in the data set on granuloma (setting [6]), the change in vivo at 0.1 %, 50 mg is -1.2 ± 5.7%.

For `Cc1ccc(C(=O)OC[C@H]2O[C@H](OCC(=O)[C@@]3(O)[C@H](C)C[C@H]4[C@@H]5CCC6=CC(=O)C=C[C@]6(C)[C@@]5(F)[C@@H](O)C[C@@]43C)[C@H](OC(=O)c3ccc(C)cc3)[C@@H](OC(=O)c3ccc(C)cc3)[C@H]2OC(=O)c2ccc(C)cc2)cc1` [Compound 14α], the change in vivo at 0.1 %, 50 mg in the data set on granuloma (setting [6]) came to 5.7 ± 1.9%.

In the case of `COC(=O)[C@H]1O[C@@H](OCC(=O)[C@@]2(O)[C@H](C)C[C@H]3[C@@H]4CCC5=CC(=O)C=C[C@]5(C)[C@@]4(F)[C@@H](O)C[C@@]32C)[C@H](OC(=O)c2ccc(C)cc2)[C@@H](OC(=O)c2ccc(C)cc2)[C@H]1OC(=O)c1ccc(C)cc1` [Compound 69β], the change in vivo at 0.1 %, 50 mg with granuloma (setting [6]) was found to be 0.7 ± 2.4%.

As to `COC(=O)[C@H]1O[C@@H](OCC(=O)[C@@]2(O)[C@H](C)C[C@H]3[C@@H]4CCC5=CC(=O)C=C[C@]5(C)[C@@]4(F)[C@@H](O)C[C@@]32C)[C@H](OC(=O)c2ccc(C)cc2)[C@@H](OC(=O)c2ccc(C)cc2)[C@@H]1OC(=O)c1ccc(C)cc1` [Compound 59β], the change in vivo at 0.1 %, 50 mg with granuloma (setting [6]) was -7.7 ± 6.8%.

On to `Cc1ccc(C(=O)OC[C@H]2O[C@@H](OCC(=O)[C@@]3(O)[C@@H](C)C[C@H]4[C@@H]5C[C@H](F)C6=CC(=O)C=C[C@]6(C)[C@@]5(F)[C@@H](O)C[C@@]43C)[C@H](OC(=O)c3ccc(C)cc3)[C@@H](OC(=O)c3ccc(C)cc3)[C@@H]2OC(=O)c2ccc(C)cc2)cc1` [Compound 107β, glucosyldiflorasone (p-toluoyl derivative)], for which, in data set [2] (setting [4]), the inhibition in vivo at 0.01 mg was -21.2 ± 19.2%, the inhibition in vivo at 0.1 mg is -23.3 ± 21.4% and the inhibition in vivo at 1 mg amounted to 28.1 ± 12.5%. In addition, in data set [2] (setting [5]), the inhibition in vivo at 0.01 mg is -28.5 ± 18.8%, the inhibition in vivo at 0.1 mg is -30.9 ± 20.9% and the inhibition in vivo at 1 mg worked out at 28.8 ± 15.2%. Also, the change in vivo at 0.1 %, 50 mg in the data set on granuloma (setting [6]) was -6.3 ± 5.5%.

In the case of `COC(=O)[C@H]1O[C@@H](OCC(=O)[C@@]2(O)[C@H](C)C[C@H]3[C@@H]4CCC5=CC(=O)C=C[C@]5(C)[C@@]4(F)[C@@H](O)C[C@@]32C)[C@H](OC(C)=O)[C@@H](OC(C)=O)[C@H]1OC(C)=O` [Compound 64β], the change in vivo at 0.1 %, 50 mg in the data set with granuloma (setting [6]) is -32.5 ± 0.5%.

Turning to `COC(=O)[C@H]1O[C@@H]2OC(C)(OCC(=O)[C@@]3(O)[C@H](C)C[C@H]4[C@@H]5CCC6=CC(=O)C=C[C@]6(C)[C@@]5(F)[C@@H](O)C[C@@]43C)O[C@@H]2[C@@H](OC(C)=O)[C@H]1OC(C)=O` (stereo partly drawn) [Compound 64'], in the data set on granuloma (setting [6]), the change in vivo at 0.1 %, 50 mg was -41.3 ± 2.3%.

With `Cc1ccc(C(=O)OC[C@H]2O[C@H](OCC(=O)[C@@]3(O)[C@H](C)C[C@H]4[C@@H]5CCC6=CC(=O)C=C[C@]6(C)[C@@]5(F)[C@@H](O)C[C@@]43C)[C@H](OC(=O)c3ccc(C)cc3)[C@@H](OC(=O)c3ccc(C)cc3)[C@@H]2OC(=O)c2ccc(C)cc2)cc1` [Compound 4α], the change in vivo at 0.1 %, 50 mg in the data set on granuloma (setting [6]) was -0.6 ± 5.1%.

On to `COC(=O)[C@H]1O[C@@H](OCC(=O)[C@@]2(O)[C@H](C)C[C@H]3[C@@H]4CCC5=CC(=O)C=C[C@]5(C)[C@@]4(F)[C@@H](O)C[C@@]32C)[C@H](OC(C)=O)[C@@H](OC(C)=O)[C@@H]1OC(C)=O` [Compound 54β], for which, in the data set with granuloma (setting [6]), the change in vivo at 0.1 %, 50 mg is -35.1 ± 2.8%.

Consider `CC(=O)N[C@H]1[C@H](OCC(=O)[C@@]2(O)[C@H](C)C[C@H]3[C@@H]4CCC5=CC(=O)C=C[C@]5(C)[C@@]4(F)[C@@H](O)C[C@@]32C)O[C@H](CO)[C@@H](O)[C@@H]1O` [Compound 35β, β-N-acetylglucosaminyldexamethasone], for which the change in vivo at 0.1 %, 50 mg in the data set with granuloma (setting [6]) was -21.9 ± 4.2%.

Take `Cc1ccc(C(=O)OC[C@H]2O[C@H](OCC(=O)[C@@]3(O)[C@H](C)C[C@H]4[C@@H]5CCC6=CC(=O)C=C[C@]6(C)[C@@]5(F)[C@@H](O)C[C@@]43C)[C@@H](OC(=O)c3ccc(C)cc3)[C@@H](OC(=O)c3ccc(C)cc3)[C@@H]2OC(=O)c2ccc(C)cc2)cc1` [Compound 24α, mannosyldexamethasone]: the change in vivo at 0.1 %, 50 mg with granuloma (setting [6]) is -3.7 ± 4.5%.

In the case of `C[C@@H]1C[C@H]2[C@@H]3CCC4=CC(=O)C=C[C@]4(C)[C@@]3(F)[C@@H](O)C[C@]2(C)[C@@]1(O)C(=O)CO[C@@H]1O[C@H](C(=O)O)[C@H](O)[C@H](O)[C@H]1O` [Compound 65β, β-galacturonyldexamethasone], the change in vivo at 0.1 %, 50 mg in the data set on granuloma (setting [6]) was -33 ± 3.3%.

Take `C[C@@H]1C[C@H]2[C@@H]3CCC4=CC(=O)C=C[C@]4(C)[C@@]3(F)[C@@H](O)C[C@]2(C)[C@@]1(O)C(=O)CO[C@H]1O[C@H](CO)[C@H](O)[C@H](O)[C@H]1O` [Compound 15α, galactosyldexamethasone]: in data set [1], the “Adrenal weight, per cent of change” value was -48.3 ± 2.9 per cent; the “Body weight, per cent of change” value was determined as 8.3 ± 1.0 per cent; the “Spleen weight, per cent of change” value is reported as -35.7 ± 2.3 per cent; the “Thymus weight, per cent of change” value is -82.2 ± 3.3 per cent. In data set [1], this molecule displayed a Leukocyte count of -22.6 ± 7.4. Besides, the change in vivo at 0.1 %, 50 mg in the data set with granuloma (setting [3]) was -39.5 ± 1.8%.

Take `C[C@@H]1C[C@H]2[C@@H]3CCC4=CC(=O)C=C[C@]4(C)[C@@]3(F)[C@@H](O)C[C@]2(C)[C@@]1(O)C(=O)CO[C@@H]1O[C@H](CO)[C@@H](O)[C@H](O)[C@H]1O` [Compound 5β, glucosyldexamethasone]: in data set [1], the “Adrenal weight, per cent of change” value was -49.6 ± 3.2 per cent; the “Body weight, per cent of change” value was 0.7 ± 1.4 per cent; the “Spleen weight, per cent of change” value is -56.0 ± 1.6 per cent; the “Thymus weight, per cent of change” value was -85.7 ± 2.6 per cent. Besides, the Leukocyte count in data set [1] is on record as -46.6 ± 8.2. Further, the change in vivo at 0.1 %, 50 mg in the data set with granuloma (setting [3]) is -47.4 ± 2.9%.
